Laboratory results as given in ChEMBL document CHEMBL1201862, “PubChem BioAssay data set” (2004).
Activity calls are given as the source filed them.

Legend:
[1] = target: T1, High affinity choline transporter 1 (Homo sapiens, UniProt Q9GZV3); experiment: human choline transporter blockers, potency – cell-based, 5-point CRC, membrane potential dye, dose response (AID 504840); format: functional
T1 sequence (Q9GZV3 whole entry): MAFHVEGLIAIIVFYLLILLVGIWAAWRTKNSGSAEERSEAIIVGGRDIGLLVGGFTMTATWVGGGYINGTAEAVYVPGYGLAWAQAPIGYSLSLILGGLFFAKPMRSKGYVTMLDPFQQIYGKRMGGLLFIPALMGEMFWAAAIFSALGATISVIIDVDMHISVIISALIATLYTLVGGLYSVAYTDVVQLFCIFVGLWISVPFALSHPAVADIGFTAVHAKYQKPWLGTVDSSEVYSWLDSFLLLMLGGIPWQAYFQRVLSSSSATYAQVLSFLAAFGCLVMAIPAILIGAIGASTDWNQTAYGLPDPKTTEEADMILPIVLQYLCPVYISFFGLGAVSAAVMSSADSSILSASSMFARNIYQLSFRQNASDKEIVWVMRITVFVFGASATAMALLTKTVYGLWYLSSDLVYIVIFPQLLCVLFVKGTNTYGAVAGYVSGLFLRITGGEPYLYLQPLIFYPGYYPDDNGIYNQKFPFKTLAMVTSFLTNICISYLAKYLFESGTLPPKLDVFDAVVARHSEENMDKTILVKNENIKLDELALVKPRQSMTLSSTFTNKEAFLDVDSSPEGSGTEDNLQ

[2] = target: T1, High affinity choline transporter 1; experiment: human choline transporter blockers, potency – cell-based, 10-point CRC, membrane potential dye, dose response (AID 588401); format: functional;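 further: membrane potential dye fluorescence of choline-evoked depolarization via CHT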
[3] = target: Serine/threonine-protein kinase pim-1 (Homo sapiens, UniProt P11309); format: functional
[4] = target: Cell division cycle 7-related protein kinase (Homo sapiens, UniProt O00311); format: functional;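 further: value obtained from a kinome-wide kinase panel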
[5] = target: Homeodomain-interacting protein kinase 2 (Homo sapiens, UniProt Q9H2X6); format: functional;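 further: measured within a kinome-wide kinase profiling panel, HIPK2 being one panel member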
[6] = target: MAP kinase-interacting serine/threonine-protein kinase 2 (Homo sapiens, UniProt Q9HBH9); format: functional
[7] = target: Interleukin-1 receptor-associated kinase 4 (Homo sapiens, UniProt Q9NWZ3); format: functional
[8] = target: Glycogen synthase kinase-3 beta (Homo sapiens, UniProt P49841); format: functional;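 further: value comes from a broad kinome profiling panel, with GSK3B as the panel member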
[9] = target: cAMP-dependent protein kinase catalytic subunit alpha (Homo sapiens, UniProt P17612); format: functional
[10] = target: Dual specificity protein kinase CLK4 (Homo sapiens, UniProt Q9HAZ1); format: functional
[11] = target: Mitogen-activated protein kinase kinase kinase kinase 4 (Homo sapiens, UniProt O95819); format: functional
[12] = target: Neuropeptides B/W receptor type 1 (Homo sapiens, UniProt P48145); experiment: human NPBW1 receptor blockade, IC50 – cell-based, fluorescence, dose response, set 5, late-stage follow-up (AID 588566); format: functional
[13] = target: Melanin-concentrating hormone receptor 1 (Homo sapiens, UniProt Q99705); experiment: Late-stage fluorescence-based counterscreen for antagonists of the G-protein coupled receptor 7 (GPR7): cell-based dose response assay to identify antagonists of the melanin-concentrating hormone receptor 1 (MCHR1) Set 5.; format: functional
[14] = Trypanosoma cruzi growth suppression in host cells – NIH3T3 host cells, beta-gal luminescence, confirmation (AID 2044); format: functional, cell-based;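 further: intracellular parasites grown in NIH/3T3 mouse fibroblasts as host cells; luminescent beta-galactosidase reporter signal from transgenic T. cruzi replicating inside host cells; inhibitors lower the luminescence signal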
[15] = NIH3T3 cell viability loss – ATP luminescence, mouse fibroblasts, counter-screen, dose response (AID 2010); format: functional, cell-based;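 further: cells exposed to compound for about 90 hours before reading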
[16] = target: Botulinum neurotoxin type A (Clostridium botulinum (strain Hall / ATCC 3502 / NCTC 13319 / Type A), UniProt P0DPI1); experiment: High-throughput multiplex microsphere dose response for inhibitors of toxin protease, specifically Botulinum neurotoxin light chain A protease, compounds from Cherry Pick 02.; format: functional; settings: read-out: EC50_MICROM
[17] = target: Lethal factor (Bacillus anthracis, UniProt P15917); experiment: High-throughput multiplex microsphere dose response for inhibitors of toxin protease, specifically Lethal Factor protease, compounds from Cherry Pick 02.; format: functional; settings: read-out: EC50_MICROM
[18] = target: Botulinum neurotoxin type F (Clostridium botulinum, UniProt P30996); experiment: High-throughput multiplex microsphere dose response for inhibitors of toxin protease, specifically Botulinum neurotoxin light chain F protease, compounds from Cherry Pick 02.; format: functional; settings: read-out: EC50_MICROM

Chain of Neuropeptides B/W receptor type 1 (P48145 whole entry): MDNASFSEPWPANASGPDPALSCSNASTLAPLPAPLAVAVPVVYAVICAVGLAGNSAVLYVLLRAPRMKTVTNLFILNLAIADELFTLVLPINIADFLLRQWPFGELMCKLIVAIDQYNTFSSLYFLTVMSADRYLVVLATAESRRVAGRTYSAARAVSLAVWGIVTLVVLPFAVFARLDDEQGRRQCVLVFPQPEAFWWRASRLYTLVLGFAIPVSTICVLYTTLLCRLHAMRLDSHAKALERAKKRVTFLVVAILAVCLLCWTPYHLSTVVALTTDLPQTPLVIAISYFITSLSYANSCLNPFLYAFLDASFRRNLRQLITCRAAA
Chain of Lethal factor (P15917 whole entry): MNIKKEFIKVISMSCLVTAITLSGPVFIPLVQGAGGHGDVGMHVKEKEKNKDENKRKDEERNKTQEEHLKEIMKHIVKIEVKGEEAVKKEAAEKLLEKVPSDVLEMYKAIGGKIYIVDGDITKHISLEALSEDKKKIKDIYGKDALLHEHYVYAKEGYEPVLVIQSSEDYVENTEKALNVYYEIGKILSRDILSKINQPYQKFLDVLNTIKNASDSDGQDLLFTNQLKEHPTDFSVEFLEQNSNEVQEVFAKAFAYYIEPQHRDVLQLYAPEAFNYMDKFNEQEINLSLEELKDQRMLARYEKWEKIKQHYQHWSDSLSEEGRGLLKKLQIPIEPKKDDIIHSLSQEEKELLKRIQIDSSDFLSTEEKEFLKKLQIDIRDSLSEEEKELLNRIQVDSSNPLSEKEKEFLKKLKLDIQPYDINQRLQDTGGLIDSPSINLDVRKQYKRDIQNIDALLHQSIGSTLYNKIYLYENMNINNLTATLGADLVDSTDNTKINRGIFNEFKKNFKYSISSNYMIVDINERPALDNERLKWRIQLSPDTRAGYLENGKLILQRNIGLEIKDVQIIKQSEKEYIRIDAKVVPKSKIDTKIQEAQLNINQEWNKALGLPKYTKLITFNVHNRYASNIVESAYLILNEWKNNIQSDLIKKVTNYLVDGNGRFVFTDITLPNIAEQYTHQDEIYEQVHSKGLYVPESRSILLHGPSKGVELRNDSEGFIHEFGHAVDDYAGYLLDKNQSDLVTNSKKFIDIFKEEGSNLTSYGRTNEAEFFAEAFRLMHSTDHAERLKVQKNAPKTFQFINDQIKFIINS
Chain of Glycogen synthase kinase-3 beta (P49841 whole entry): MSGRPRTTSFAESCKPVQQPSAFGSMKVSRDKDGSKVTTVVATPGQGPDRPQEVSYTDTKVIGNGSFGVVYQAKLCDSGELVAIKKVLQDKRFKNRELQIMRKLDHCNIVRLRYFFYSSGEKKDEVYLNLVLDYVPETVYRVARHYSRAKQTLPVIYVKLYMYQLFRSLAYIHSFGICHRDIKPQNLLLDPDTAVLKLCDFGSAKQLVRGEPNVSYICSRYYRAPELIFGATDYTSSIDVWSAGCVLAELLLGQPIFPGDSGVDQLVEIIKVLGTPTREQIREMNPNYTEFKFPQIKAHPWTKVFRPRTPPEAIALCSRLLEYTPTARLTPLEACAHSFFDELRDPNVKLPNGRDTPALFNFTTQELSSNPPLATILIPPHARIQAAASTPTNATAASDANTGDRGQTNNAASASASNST
Chain of Botulinum neurotoxin type A (P0DPI1 2-448 limits assumed): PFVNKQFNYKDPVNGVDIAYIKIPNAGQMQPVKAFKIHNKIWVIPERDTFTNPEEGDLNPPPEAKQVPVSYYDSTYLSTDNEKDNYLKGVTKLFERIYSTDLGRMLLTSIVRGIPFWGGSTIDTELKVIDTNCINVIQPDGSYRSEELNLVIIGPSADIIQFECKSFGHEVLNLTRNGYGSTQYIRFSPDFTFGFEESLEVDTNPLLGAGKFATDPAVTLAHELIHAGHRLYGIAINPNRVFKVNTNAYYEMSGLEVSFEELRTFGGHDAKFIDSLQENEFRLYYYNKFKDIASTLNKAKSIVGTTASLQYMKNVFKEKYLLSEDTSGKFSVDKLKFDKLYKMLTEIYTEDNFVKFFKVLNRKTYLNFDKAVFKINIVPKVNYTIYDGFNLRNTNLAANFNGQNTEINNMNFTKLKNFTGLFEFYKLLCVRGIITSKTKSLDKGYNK
Chain of Mitogen-activated protein kinase kinase kinase kinase 4 (O95819 whole entry): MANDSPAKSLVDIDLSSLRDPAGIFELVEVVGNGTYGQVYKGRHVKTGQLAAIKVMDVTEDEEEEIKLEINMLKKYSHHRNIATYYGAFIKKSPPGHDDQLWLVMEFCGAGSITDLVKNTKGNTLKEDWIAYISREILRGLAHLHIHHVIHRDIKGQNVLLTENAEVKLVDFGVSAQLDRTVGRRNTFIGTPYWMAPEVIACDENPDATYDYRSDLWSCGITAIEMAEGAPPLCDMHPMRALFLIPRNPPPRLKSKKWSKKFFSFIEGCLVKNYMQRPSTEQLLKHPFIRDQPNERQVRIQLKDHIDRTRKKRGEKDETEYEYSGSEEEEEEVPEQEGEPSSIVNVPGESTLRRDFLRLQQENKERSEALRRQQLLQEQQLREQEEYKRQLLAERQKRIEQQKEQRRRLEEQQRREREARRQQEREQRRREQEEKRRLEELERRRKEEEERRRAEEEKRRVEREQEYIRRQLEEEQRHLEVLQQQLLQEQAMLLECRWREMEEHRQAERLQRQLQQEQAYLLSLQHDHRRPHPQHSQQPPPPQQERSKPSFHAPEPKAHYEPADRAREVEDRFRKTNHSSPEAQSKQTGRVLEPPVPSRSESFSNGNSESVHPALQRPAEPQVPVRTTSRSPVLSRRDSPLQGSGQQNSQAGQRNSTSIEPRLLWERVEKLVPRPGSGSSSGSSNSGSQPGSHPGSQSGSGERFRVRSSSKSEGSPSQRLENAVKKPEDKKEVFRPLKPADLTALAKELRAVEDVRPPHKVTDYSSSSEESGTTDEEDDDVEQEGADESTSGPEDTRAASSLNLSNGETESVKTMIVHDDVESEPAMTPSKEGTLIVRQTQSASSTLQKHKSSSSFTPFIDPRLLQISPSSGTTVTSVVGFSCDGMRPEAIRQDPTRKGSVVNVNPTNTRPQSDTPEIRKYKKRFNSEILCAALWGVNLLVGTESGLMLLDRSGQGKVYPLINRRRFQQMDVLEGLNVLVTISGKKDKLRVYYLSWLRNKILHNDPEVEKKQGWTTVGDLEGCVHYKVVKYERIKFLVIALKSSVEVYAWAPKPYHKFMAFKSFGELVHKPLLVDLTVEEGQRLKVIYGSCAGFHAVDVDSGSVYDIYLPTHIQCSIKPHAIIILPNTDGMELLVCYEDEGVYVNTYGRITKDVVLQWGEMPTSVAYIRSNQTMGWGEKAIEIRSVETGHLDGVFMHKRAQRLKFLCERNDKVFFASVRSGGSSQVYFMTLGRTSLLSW
Chain of Homeodomain-interacting protein kinase 2 (Q9H2X6 whole entry): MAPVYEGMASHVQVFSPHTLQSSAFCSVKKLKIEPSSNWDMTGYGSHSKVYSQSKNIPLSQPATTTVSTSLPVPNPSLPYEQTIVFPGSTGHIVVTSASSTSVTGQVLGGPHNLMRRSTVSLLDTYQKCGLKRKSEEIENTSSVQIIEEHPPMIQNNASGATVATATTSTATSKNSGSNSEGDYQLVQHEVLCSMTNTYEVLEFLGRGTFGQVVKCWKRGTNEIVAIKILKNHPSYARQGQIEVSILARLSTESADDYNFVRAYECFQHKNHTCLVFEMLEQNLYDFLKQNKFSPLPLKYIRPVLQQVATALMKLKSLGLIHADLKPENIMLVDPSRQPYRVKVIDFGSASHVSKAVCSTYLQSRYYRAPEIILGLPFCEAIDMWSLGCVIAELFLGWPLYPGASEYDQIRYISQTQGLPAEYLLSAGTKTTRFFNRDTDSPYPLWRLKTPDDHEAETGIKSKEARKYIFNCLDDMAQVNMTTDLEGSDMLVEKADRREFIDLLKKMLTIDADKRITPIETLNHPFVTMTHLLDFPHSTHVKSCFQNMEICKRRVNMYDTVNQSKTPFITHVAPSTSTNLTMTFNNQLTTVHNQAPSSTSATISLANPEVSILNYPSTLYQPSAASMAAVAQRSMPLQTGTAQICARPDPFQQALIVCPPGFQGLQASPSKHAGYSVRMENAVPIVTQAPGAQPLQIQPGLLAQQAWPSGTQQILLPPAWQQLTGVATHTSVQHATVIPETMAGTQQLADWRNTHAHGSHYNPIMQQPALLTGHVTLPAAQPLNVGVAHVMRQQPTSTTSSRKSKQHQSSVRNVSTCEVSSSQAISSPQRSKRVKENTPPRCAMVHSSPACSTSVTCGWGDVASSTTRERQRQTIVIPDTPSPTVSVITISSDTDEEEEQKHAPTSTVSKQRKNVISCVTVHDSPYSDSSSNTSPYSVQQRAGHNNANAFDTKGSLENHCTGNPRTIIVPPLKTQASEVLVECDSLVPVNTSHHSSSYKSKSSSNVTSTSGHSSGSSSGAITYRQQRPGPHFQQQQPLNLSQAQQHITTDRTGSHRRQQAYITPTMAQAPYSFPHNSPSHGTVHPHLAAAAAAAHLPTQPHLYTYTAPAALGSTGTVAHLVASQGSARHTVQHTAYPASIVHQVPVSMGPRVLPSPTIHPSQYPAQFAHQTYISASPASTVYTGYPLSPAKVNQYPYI
Chain of Melanin-concentrating hormone receptor 1 (Q99705 whole entry): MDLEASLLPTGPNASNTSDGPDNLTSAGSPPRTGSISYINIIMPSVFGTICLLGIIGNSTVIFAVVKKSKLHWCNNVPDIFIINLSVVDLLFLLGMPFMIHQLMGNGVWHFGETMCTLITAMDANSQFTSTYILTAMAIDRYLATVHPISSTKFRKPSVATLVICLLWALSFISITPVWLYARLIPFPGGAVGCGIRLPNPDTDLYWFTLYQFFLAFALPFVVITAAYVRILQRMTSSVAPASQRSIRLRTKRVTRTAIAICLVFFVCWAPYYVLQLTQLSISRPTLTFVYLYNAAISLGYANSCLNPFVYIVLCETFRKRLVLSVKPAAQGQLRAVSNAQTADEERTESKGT

Structure (SMILES): Clc1cc(I)cc(Cl)c1N=C1NCCN1
- IC50 [1]: 1120 nM (active)
- IC50 [2]: 843 nM (active)

Structure (SMILES): Nc1n[nH]c2ccc(-c3nnn(Cc4ccccc4)c3C3CC3)cc12
- Ki [3]: 3980 nM (active)
- Ki [4]: 31.6 nM (active)
- Ki [5]: 2000 nM (active)
- Ki [6]: 398 nM (active)
- Ki [7]: > 10000 nM (inactive)
- Ki [8]: 7.94 nM (active)
- Ki [9]: 631 nM (active)
- Ki [10]: 25.1 nM (active)
- Ki [11]: 1000 nM (active)

Structure (SMILES): O=c1c(Oc2ccc3ccccc3c2)c(Cl)cnn1Cc1cccc2ccccc12
- IC50 [12]: > 20000 nM (inactive)
- IC50 [13]: > 20000 nM (inactive)

Structure (SMILES): Cc1cc2ccccc2n1CCNC(=O)COc1ccccc1
- EC50 [14]: 1160 nM (active)
- EC50 [15]: > 30000 nM (not active)
- EC50 [16]: 4900 nM (active)
- EC50 [17]: 1400 nM (active)
- EC50 [18]: > 20000 nM (inactive)
